From PMC9851200, “Multiparameter phenotypic screening for endogenous TFEB and TFE3 translocation identifies novel chemical series modulating lysosome function” (Autophagy, 2022)

Columns and labels:
Assay type in all cases: binding
[1] = target: T1, kinases (KINOMEscan panel) (Homo sapiens, UniProt Q6ZWH5); conditions: NEW KINOMEscan
T1 sequence (Q6ZWH5 1-1172): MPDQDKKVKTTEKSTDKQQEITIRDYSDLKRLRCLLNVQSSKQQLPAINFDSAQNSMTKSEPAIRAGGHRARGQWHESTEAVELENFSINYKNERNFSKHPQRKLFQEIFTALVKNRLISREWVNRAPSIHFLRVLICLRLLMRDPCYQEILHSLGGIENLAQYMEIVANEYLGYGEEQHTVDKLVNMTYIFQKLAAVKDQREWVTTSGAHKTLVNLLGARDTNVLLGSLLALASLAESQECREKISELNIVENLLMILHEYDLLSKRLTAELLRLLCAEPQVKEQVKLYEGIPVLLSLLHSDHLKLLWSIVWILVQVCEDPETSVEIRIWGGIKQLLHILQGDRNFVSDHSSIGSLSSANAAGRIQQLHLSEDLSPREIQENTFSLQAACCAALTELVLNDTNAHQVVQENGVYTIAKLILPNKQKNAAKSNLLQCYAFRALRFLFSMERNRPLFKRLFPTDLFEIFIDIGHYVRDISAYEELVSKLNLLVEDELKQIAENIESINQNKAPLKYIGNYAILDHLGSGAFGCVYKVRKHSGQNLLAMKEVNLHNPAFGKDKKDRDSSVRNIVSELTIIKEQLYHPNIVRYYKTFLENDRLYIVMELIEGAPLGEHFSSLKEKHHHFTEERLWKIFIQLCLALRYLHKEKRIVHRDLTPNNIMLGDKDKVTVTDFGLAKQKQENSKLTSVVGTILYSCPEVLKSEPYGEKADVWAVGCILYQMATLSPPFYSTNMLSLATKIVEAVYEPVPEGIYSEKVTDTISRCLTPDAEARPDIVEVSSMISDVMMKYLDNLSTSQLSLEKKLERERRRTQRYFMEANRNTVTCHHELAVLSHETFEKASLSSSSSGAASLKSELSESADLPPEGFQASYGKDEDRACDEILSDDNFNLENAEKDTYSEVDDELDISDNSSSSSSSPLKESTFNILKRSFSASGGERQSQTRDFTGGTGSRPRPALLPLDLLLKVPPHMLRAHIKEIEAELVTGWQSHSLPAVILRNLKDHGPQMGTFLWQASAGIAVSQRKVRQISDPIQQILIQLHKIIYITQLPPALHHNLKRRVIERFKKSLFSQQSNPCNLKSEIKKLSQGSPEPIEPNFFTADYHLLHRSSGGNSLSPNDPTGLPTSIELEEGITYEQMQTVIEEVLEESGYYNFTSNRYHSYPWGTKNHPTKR

[2] = target: kinases (KINOMEscan panel) (Homo sapiens, UniProt P12931); conditions: SRC; NEW KINOMEscan
[3] = target: kinases (KINOMEscan panel) (Homo sapiens, UniProt P00519, T315I); conditions: NEW KINOMEscan; for KINOMEscan ABL1(T315I)-nonphosphorylated: kinase ABL1(T315I)-nonphosphorylated; for KINOMEscan ABL1(T315I)-phosphorylated: kinase ABL1(T315I)-phosphorylated
[4] = target: kinases (KINOMEscan panel) (Homo sapiens, UniProt P06213); conditions: kinase INSR; NEW KINOMEscan
[5] = target: kinases (KINOMEscan panel) (Homo sapiens, UniProt Q9HBH9); conditions: MKNK2; NEW KINOMEscan
[6] = target: T2, kinases (KINOMEscan panel) (Homo sapiens, UniProt P36888); conditions: NEW KINOMEscan; for KINOMEscan FLT3-autoinhibited: kinase FLT3-autoinhibited
T2 sequence (P36888 27-993): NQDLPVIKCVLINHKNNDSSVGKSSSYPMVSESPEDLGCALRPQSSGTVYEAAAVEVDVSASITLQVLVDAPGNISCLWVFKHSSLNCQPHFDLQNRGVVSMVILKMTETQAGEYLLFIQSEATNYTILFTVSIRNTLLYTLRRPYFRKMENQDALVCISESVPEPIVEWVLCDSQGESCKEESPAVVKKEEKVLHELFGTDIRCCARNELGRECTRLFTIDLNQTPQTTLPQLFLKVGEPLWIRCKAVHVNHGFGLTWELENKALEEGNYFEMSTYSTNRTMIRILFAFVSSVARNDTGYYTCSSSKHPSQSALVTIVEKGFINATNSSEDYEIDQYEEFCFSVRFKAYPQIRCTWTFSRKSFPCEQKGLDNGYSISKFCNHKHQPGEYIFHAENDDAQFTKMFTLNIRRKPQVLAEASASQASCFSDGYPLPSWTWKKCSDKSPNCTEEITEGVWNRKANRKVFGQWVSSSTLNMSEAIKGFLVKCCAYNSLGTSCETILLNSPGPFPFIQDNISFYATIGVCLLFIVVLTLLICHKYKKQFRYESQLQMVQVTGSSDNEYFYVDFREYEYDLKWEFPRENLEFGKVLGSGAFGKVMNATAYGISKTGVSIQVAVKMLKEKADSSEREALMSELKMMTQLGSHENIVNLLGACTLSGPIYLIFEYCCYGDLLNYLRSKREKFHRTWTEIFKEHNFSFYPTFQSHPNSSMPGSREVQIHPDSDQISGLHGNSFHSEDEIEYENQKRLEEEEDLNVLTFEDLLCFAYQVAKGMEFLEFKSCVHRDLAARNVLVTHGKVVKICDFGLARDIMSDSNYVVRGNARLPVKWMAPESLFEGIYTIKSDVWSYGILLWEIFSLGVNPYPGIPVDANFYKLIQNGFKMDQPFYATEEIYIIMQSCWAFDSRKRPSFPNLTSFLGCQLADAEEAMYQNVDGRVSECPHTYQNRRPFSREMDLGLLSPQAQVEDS

[7] = target: kinases (KINOMEscan panel) (Homo sapiens, UniProt Q8TDR2); conditions: STK35; NEW KINOMEscan
kinases (KINOMEscan panel) (Homo sapiens, UniProt Q8TDR2), sequence (Q8TDR2 whole entry): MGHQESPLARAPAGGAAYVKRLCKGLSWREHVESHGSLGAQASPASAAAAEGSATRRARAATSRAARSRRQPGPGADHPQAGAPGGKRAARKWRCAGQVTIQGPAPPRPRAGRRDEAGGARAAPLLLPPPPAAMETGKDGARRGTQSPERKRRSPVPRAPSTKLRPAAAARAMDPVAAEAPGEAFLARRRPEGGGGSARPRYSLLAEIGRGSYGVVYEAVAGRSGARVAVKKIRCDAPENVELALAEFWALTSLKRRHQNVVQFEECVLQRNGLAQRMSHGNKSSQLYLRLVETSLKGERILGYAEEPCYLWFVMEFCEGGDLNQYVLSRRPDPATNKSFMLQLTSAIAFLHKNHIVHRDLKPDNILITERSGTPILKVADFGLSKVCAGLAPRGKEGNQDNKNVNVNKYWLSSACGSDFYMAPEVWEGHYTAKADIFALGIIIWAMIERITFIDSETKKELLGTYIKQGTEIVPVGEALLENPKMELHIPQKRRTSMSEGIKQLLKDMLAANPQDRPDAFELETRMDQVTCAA

kinases (KINOMEscan panel) (Homo sapiens, UniProt Q9HBH9), sequence (Q9HBH9 whole entry): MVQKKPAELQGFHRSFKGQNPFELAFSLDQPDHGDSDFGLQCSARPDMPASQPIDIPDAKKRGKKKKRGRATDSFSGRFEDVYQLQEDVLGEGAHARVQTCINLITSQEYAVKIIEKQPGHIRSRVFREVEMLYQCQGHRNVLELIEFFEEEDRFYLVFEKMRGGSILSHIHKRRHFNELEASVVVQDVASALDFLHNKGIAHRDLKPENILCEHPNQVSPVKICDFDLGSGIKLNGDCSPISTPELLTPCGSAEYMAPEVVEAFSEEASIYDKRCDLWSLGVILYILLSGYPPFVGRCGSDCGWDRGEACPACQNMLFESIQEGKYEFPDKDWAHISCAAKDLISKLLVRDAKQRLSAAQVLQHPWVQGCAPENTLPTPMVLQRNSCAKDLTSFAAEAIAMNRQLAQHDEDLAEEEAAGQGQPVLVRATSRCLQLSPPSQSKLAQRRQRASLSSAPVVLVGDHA
kinases (KINOMEscan panel) (Homo sapiens, UniProt P06213), sequence (P06213 28-1382): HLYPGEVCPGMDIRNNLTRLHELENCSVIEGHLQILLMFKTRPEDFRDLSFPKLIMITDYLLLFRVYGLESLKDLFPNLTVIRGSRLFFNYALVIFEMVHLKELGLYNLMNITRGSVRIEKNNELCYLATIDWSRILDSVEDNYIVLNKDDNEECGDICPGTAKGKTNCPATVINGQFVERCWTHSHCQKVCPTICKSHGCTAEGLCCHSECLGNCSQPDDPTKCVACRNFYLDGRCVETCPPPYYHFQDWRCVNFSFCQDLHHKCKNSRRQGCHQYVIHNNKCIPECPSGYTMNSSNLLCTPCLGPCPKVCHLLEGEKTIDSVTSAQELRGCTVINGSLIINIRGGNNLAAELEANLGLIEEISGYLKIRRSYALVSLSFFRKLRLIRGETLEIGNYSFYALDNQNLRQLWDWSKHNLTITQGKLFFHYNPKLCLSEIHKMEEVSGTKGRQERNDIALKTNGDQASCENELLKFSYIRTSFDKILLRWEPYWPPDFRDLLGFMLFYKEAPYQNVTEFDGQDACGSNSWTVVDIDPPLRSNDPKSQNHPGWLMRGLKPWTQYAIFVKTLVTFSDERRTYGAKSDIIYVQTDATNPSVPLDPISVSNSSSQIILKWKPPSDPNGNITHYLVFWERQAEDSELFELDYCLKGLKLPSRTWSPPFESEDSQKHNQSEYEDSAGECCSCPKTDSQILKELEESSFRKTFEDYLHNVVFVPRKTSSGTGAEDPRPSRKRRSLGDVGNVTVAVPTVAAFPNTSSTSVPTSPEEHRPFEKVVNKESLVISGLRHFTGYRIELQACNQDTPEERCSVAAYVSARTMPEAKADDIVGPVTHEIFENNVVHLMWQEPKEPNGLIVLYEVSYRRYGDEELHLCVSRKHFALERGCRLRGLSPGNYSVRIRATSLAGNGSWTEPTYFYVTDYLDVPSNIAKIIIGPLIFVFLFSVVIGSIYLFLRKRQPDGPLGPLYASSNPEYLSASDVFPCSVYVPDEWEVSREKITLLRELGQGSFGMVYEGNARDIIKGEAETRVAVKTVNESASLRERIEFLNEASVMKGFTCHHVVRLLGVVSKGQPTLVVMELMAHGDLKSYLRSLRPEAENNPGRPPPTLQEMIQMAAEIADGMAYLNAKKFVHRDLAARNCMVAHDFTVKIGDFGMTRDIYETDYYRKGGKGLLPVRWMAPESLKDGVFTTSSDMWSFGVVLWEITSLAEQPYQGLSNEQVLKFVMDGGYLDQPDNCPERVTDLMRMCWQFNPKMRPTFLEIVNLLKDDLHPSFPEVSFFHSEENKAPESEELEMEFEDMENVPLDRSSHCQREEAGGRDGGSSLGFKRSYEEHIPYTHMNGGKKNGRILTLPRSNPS
kinases (KINOMEscan panel) (Homo sapiens, UniProt P12931), sequence (P12931 whole entry): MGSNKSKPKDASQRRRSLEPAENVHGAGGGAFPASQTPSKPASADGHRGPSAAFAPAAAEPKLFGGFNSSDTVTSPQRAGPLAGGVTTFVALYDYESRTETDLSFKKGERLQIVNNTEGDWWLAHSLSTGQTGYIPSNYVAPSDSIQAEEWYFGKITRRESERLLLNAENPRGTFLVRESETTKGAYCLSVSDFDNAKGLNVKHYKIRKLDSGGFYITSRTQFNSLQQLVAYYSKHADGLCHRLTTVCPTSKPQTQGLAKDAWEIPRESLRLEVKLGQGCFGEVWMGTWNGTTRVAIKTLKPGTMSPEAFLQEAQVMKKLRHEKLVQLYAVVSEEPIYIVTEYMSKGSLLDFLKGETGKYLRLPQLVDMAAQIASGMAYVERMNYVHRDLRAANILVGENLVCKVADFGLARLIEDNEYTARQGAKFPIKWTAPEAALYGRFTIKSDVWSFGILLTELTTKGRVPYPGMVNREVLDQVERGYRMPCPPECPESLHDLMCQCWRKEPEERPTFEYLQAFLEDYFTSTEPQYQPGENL

| SMILES | KINOMEscan NEK10 [1] | KINOMEscan SRC [2] | KINOMEscan ABL1(T315I)-nonphosphorylated [3] | KINOMEscan ABL1(T315I)-phosphorylated [3] | KINOMEscan INSR [4] | KINOMEscan MKNK2 [5] | KINOMEscan FLT3 [6] | KINOMEscan FLT3-autoinhibited [6] | KINOMEscan STK35 [7] |
| --- | --- | --- | --- | --- | --- | --- | --- | --- | --- |
| Cc1cccc(-c2nc(Nc3ccc4nn(C)cc4c3)c3ccccc3n2)n1 [NK167] | 11 | 13 | 0 | 4 | 0 | 0 | 0 | 0 | 0 |
| Cc1cccc(-c2nc(N(C)c3ccc4ncsc4c3)c3ccccc3n2)n1 [NK-161] | 17 | 18 | 0 | 3 | 2 | 0 | 0 | 0 | 0 |
